Measured values published in paper PMC2857364, “Inhibition of Nitric Oxide (NO) Production in Lipopolysaccharide (LPS)-Activated Murine Macrophage RAW 264.7 Cells by the Norsesterterpene Peroxide, Epimuqubilin A” (Marine Drugs, 2010).
Where a name gives a salt, the structure may show the parent alone. Read-outs that look alike come from different tables or passages of the source.

Tests used:
[1] = SRB assay for cytotoxic effect in RAW 264.7 cells under the NO assay condition; assay type: cell-based, murine; details: mouse, RAW 264.7 macrophage cells (LPS-activated); for activity at 20 h, 20 μg/mL: 20 μg/mL after 20 h incubation in RAW 264.7 cells, read-out: Cytotoxic activity % Survival; for IC50 at 20 h: RAW 264.7 cells, SRB
Experimental: (§1) In addition, to determine whether the inhibitory effects of compounds on NO production were due to specific pharmacological activities, or non-specific cell cytotoxicity leading to false positive results, RAW 264.7 cell viability was determined by using the sulforhodamine B (SRB) protein staining method. Compounds 1 and 6 mediated a modest cytototoxic response, with 36.1 and 43.0% percent survival, respectively, at the highest concentration tested (20 μg/mL; 51.0 μM). Cytotoxic effects diminished with lower concentrations. […] Further experiments will be performed to determine whether epimuqubilin A inhibits nitrite production via suppression of iNOS expression in the levels of protein.
(§2) The inhibitory effects of samples on NO production were evaluated in LPS-activated murine macrophage RAW 264.7 cells, using a method modified from that previously reported. Briefly, RAW 264.7 cells were cultured in Dulbecco’s modified Eagle’s medium (DMEM) supplemented with penicillin G sodium (100 units/mL), streptomycin sulfate (100 μg/mL), amphotericin B (0.25 μg/mL), and 10% fetal bovine serum (FBS). The cells were seeded in 96-well culture plates with 1 × 10^5 cells/well and incubated for 24 h at 37°C in a humidified atmosphere containing 5% CO2. The cells were treated with samples dissolved in phenol red-free DMEM for 30 min followed by 1 μg/mL of LPS treatment for 20 h. The amount of NO in the cultured medium was measured by the Griess reagent. The standard curve was created by using known concentrations of sodium nitrite, and the absorbance was measured at 540 nm. To evaluate the cytotoxic effect of samples in RAW 264.7 cells in the assay condition, SRB assay was performed. Briefly, after the fixation with 10% trichloroacetic acid (TCA), cells were stained with 0.4% SRB solution in 1% acetic acid followed by dissolving bound SRB in 10 mM Tris-buffer. The optical density was determined at 515 nm.

[2] = tested on: NO production in LPS-activated murine macrophage RAW 264.7 cells; assay: Assay for NO inhibitory effect using LPS-activated RAW 264.7 cells (Griess reagent); assay type: cell-based; details: for IC50: LPS (1 μg/mL, 20 h)-activated RAW 264.7 cells
Experimental: as §2

[3] = tested on: GSK-3β; assay type: cell-based, yeast; details: disk alone 7 mm
Experimental: Disruption of four yeast GSK-3 homologs (MCK1, MDS1, MRK1 and YOL128C) in gsk-3 null mutant confers a temperature-sensitive phenotype (growth defect at 37 °C), that can be suppressed by the expression of cloned mammalian GSK-3β [29]. Inhibition of GSK-3β should therefore mimic the phenotype of the gsk-3 null mutant, indicated by growth inhibition of transformant of gsk-3 null with pKT10-GSK-3β only at 37 °C. A genetically modified yeast strain, H10075 with genotype {MAT α his3 leu2 ura3 trp1 ade2 mck1::TRP1 mds1::HIS3 mrk1 yol128c::LEU2 [pKT10-GSK-3β], was grown in 5 mL of liquid media of SC minus uracil, shaking, at 37 °C for 2 days. Four hundred-μL of the yeast culture was added to 100 mL of SC minus uracil agar [0.67% yeast nitrogen base without amino acids and ammonium sulfate, 0.5% ammonium sulfate, 2% D-(+)-glucose anhydrate, 1 mL each of 0.03 mg/mL of adenine (hemisulfate salt), 0.03 mg/mL of L-tryptophan, 0.03 mg/mL of L-leucine, 0.03 mg/mL of L-histidine and 1.5% bacteriological agar, pH 5.6]. […] The Petri dishes were incubated at both 25 °C and 37 °C for 72 hours. Three phenotypes are observed on yeast plates. A clear zone of inhibition (ZOI) at 37 °C and no ZOI at 25 °C indicate that the agent tested inhibits the GSK-3β pathway. The clear zones of inhibition at both 37 and 25 °C of equal width indicate that the agents are cytotoxic. Plates that have a negative phenotype are plates that have no observable ZOI. […] The assays were performed in duplicate.

[4] = tested on: RAW 264.7 cells; assay: SRB assay for cytotoxic effect in RAW 264.7 cells under the NO assay condition; assay type: cell-based, murine; details: for Cytotoxic effects: at 12.8 μM, RAW 264.7 cells, SRB
Experimental: as §1, §2

Row | IC50 ([2]; Mus musculus, RAW264.7, 20 h) [µM] | SMILES | activity at 20 h, 20 μg/mL [1] [%] | Yeast GSK-3β zone of inhibition ([3]; 25 °C, 20 μg/disk) | Yeast GSK-3β zone of inhibition ([3]; 37 °C, 20 μg/disk) [mm] | Yeast GSK-3β zone of inhibition ([3]; 37 °C, 40 μg/disk) | further results
1 | 25.5 | [H]/N=C(/NC)NCCC[C@H](N)C(=O)O [L-NMMA, L-N^G-Monomethyl Arginine citrate, reference compound] | > 100 | – | – | – | –
2 | – | Cn1sc(=O)n(Cc2ccccc2)c1=O [TDZD-8, 4-Benzyl-2-methyl-1,2,4-thiadiazolidine-3,5-dione, reference compound] | – | 10 mm | 11 | 15 mm | Yeast GSK-3β zone of inhibition ([3]; 25 °C, 5 μg/disk): 8 mm; Yeast GSK-3β zone of inhibition ([3]; 25 °C, 10 μg/disk): 9 mm; Yeast GSK-3β zone of inhibition ([3]; 25 °C, 40 μg/disk): 12 mm; Yeast GSK-3β zone of inhibition ([3]; 37 °C, 5 μg/disk): 9 mm; Yeast GSK-3β zone of inhibition ([3]; 37 °C, 10 μg/disk): 10 mm
3 | 65.7 | C=C1CCCC2C1(C)CCC(C)C2(C)CCC1(C)CCC(C(C)C(=O)OC)OO1 (stereo not drawn) [Compound 7, sigmosceptrellin B methyl ester] | > 100 | – | – | – | –
4 | – | C=C1CCCC2C1(C)CCC(C)C2(C)CCC1(C)CCC(C(C)C(=O)OC)OO1 (stereo not drawn) [Compound 5, sigmosceptrellin A methyl ester] | – | – | – | – | Cytotoxic activity % Survival ([4]; 20 μg/mL after 20 h incubation in RAW 264.7 cells, listed as Sigmosceptrellin A methyl ester (5)): 90.6%; IC50 ([2]; listed as Sigmosceptrellin A methyl ester (5)): > 100 µM; NO inhibitory activity (in words) ([2]; LPS-activated RAW 264.7 cells): inactive
5 | 23.8 | CC(=O)CCCC(C)(C)C(=O)CCC(C)=CCCC1(C)CCC(C(C)C(=O)O)OO1 (stereo not drawn) [Compound 2, muqubilone B] | 99 | – | – | – | –
6 | 46 | COC(=O)C(C)C1CCC(C)(CCC=C(C)CCC=C(C)CCC=C(C)C)OO1 (stereo not drawn) [Compound 3] | > 100 | – | – | – | –

Row | SMILES | IC50 ([2]; Mus musculus, RAW264.7, 20 h) [µM] | activity at 20 h, 20 μg/mL [1] [%] | Yeast GSK-3β zone of inhibition ([3]; 25 °C, 20 μg/disk) | Yeast GSK-3β zone of inhibition ([3]; 37 °C, 20 μg/disk) [mm] | Yeast GSK-3β zone of inhibition ([3]; 37 °C, 40 μg/disk) | further results
7 | CC1=C(CC/C(C)=C/CC[C@@]2(C)CC[C@@H]([C@H](C)C(=O)O)OO2)C(C)(C)CCC1 [Compound 1, epimuqubilin A] | 7.4 | 36.1 | no ZOI | 8 | 10–13 mm | Cytotoxic effects [4]: no significant cytotoxic effects; IC50 at 20 h [1]: 37.1 µM; Yeast GSK-3β zone of inhibition ([3]; 37 °C, 20 μg/disk, listed as Epimuqubilin A (1)): 9 mm; Yeast GSK-3β zone of inhibition ([3]; 37 °C, 40 μg/disk, listed as Epimuqubilin A (1)): 10 mm
8 | C=C1CCC[C@H]2[C@](C)(CC[C@]3(C)CC[C@H]([C@@H](C)C(=O)O)OO3)[C@@H](C)CC[C@]12C [Compound 6, sigmosceptrellin A] | 9.9 | 43 | no ZOI | 8 | 10–13 mm | Cytotoxic effects [4]: no significant cytotoxic effects; IC50 at 20 h [1]: 42.7 µM; Yeast GSK-3β zone of inhibition ([3]; 37 °C, 5 μg/disk): 8 mm; Yeast GSK-3β zone of inhibition ([3]; 37 °C, 10 μg/disk): 10 mm; Yeast GSK-3β zone of inhibition ([3]; 37 °C, 20 μg/disk, listed as Sigmosceptrellin A (6)): 11 mm; Yeast GSK-3β zone of inhibition ([3]; 37 °C, 40 μg/disk, listed as Sigmosceptrellin A (6)): 13 mm
9 | C=C1CCCC(C)(C)C1(O)CC/C(C)=C/CC[C@]1(C)CC[C@H]([C@@H](C)C(=O)OC)OO1 (stereo partly drawn) [Compound 4, epimuqubilin B] | 25.6 | > 100 | no ZOI | 8 | 10–13 mm | Yeast GSK-3β zone of inhibition ([3]; 37 °C, 40 μg/disk, listed as Epimuqubilin B (4)): 10 mm
